According to patent US20230322761A1, “DEGRADATION OF BRUTON'S TYROSINE KINASE (BTK) BY CONJUGATION OF BTK INHIBITORS WITH E3 LIGASE LIGAND AND METHODS OF USE” (BEIGENE, LTD., priority 2020, published 2023):

Biological target: T1, BTK (Homo sapiens, UniProt Q06187)
T1 construct: endogenous in cells; host or cells: TMD-8 cells
Experiment: BTK degradation in TMD-8 cells, HTRF assay after 6 h treatment
Format: cell-based
Conditions: for DC50: IC50 (DC50) of BTK degradation; for Dmax: TMD8, maximum percentage of inhibition (degradation)
Experimental: TMD-8 cells are treated with compounds diluted in 0.2% DMSO, dilution is done according to the following protocol: (1) make 500× stock solution in DMSO from 1 mM by 6-fold dilution, total 8 doses were included; (2) make 2× solution in cell culture medium by transferring 0.5 μl 500× stock solution into 125 μl medium; (3) 15 μl of 2× solution is added to cells and incubate for 6 h.
After 6 h treatment, add 10 μl 4×lysis buffer to each well; seal the plate and incubate 30 min at room temperature on a plate shaker; Once the cells are lysed, 16 μL of cell lysate are transferred to a PE 384-well HTRF detection plate; 4 μL of pre-mixed HTRF antibodies are added to each well; Cover the plate with a plate sealer, spin 1000 rpm for 1 min, Incubate overnight at room temperature; Read on BMG PheraStar with HTRF protocol (337 nm-665 nm-620 nm).
The IC50 (DC50) value of a compound can be obtained by fitting the following equation
Y=Bottom+(TOP−Bottom)/(1+((IC50/X)^hillslope))
Wherein, X and Y are known values, and IC50, Hillslope, Top and Bottom are the parameters obtained by fitting with software. Y is the inhibition percentage (calculated from the equation), X is the concentration of the compound; IC50 is the concentration of the compound when the 50% inhibition is reached. The smaller the IC50 value is, the stronger the inhibitory ability of the compound is. Vice versa, the higher the IC50 value is, the weaker the ability the inhibitory ability of the compound is; Hillslope represents the slope of the fitted curve, generally around 1*; Bottom represents the minimum value of the curve obtained by data fitting, which is generally 0%±20%; Top represents the maximum value of the curve obtained by data fitting, which is generally 100%±20%. The experimental data were fitted by calculating and analyzing with Dotmatics data analysis software.

T1 sequence (Q06187 whole entry): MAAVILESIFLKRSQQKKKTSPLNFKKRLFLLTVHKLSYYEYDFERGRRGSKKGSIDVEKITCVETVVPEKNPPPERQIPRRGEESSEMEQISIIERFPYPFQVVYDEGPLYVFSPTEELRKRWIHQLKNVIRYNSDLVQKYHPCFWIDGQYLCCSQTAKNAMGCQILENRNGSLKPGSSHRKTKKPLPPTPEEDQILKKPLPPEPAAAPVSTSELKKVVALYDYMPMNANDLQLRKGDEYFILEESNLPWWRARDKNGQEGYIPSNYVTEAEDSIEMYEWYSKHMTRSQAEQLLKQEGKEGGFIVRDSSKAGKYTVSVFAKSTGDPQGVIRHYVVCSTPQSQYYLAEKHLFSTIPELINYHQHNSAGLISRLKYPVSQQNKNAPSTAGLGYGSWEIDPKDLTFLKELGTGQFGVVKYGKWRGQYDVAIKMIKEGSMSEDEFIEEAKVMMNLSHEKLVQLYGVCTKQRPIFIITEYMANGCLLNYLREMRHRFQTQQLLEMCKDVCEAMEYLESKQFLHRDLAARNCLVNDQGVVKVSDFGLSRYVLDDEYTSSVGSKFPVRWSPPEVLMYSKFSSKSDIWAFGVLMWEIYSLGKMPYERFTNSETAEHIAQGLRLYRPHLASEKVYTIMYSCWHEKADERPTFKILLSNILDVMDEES

SMILES | DC50 [nM] | Dmax [%]
Cc1cc(-c2n[nH]c3ncc(-c4ccc(N5CCN(CC6CCN(c7ccc(N8CCC(=O)NC8=O)cc7)CC6)CC5)cc4)cc23)ccc1CNC(=O)c1cnn(C(C)(C)C)c1 [Example 32, 1-(tert-butyl)-N-(4-(5-(4-(4-((1-(4-(2,4-dioxotetrahydropyrimidin-1(2H)-yl)phenyl)piperidin-4-yl)methyl)piperazin-1-yl)phenyl)-1H-pyrazolo[3,4-b]pyridin-3-yl)-2-methylbenzyl)-1H-pyrazole-4-carboxamide] | 2.55 | 93.6
Cc1cc(-c2n[nH]c3ncc(-c4ccc(N5CCN(CCc6ccc(C7CCC(=O)NC7=O)cc6)CC5)cc4)cc23)ccc1[C@@H](C)NC(=O)c1nc(C(C)(C)C)no1 (stereo partly drawn) [Example 33, 3-(tert-butyl)-N-((1R)-1-(4-(5-(4-(4-(4-(2,6-dioxopiperidin-3-yl)phenethyl)piperazin-1-yl)phenyl)-1H-pyrazolo[3,4-b]pyridin-3-yl)-2-methylphenyl)ethyl)-1,2,4-oxadiazole-5-carboxamide] | 3.85 | 99.4
Cc1cc(-c2n[nH]c3ncc(-c4ccc(N5CCN(CCc6ccc(C7CCC(=O)NC7=O)c(F)c6)CC5)cc4)cc23)ccc1[C@@H](C)NC(=O)c1nc(C(C)(C)C)no1 (stereo partly drawn) [Example 34, 3-(tert-butyl)-N-((1R)-1-(4-(5-(4-(4-(4-(2,6-dioxopiperidin-3-yl)-3-fluorophenethyl)piperazin-1-yl)phenyl)-1H-pyrazolo[3,4-b]pyridin-3-yl)-2-methylphenyl)ethyl)-1,2,4-oxadiazole-5-carboxamide] | 3.39 | 95.6
Cc1cc(-c2n[nH]c3ncc(-c4ccc(N5CCN(CCc6ccc(C7CCC(=O)NC7=O)cc6)CC5)cc4)cc23)ccc1[C@@H](C)NC(=O)c1noc(C(C)(C)C)n1 (stereo partly drawn) [Example 35, 5-(tert-butyl)-N-((1R)-1-(4-(5-(4-(4-(4-(2,6-dioxopiperidin-3-yl)phenethyl)piperazin-1-yl)phenyl)-1H-pyrazolo[3,4-b]pyridin-3-yl)-2-methylphenyl)ethyl)-1,2,4-oxadiazole-3-carboxamide] | 1.9 | 93

Continued, values first:

DC50 [nM] | Dmax [%] | SMILES
3 | 98.3 | Cc1cc(-c2n[nH]c3ncc(-c4ccc(N5CCN(CCc6ccc(C7CCC(=O)NC7=O)c(F)c6)CC5)cc4)cc23)ccc1[C@@H](C)NC(=O)c1noc(C(C)(C)C)n1 (stereo partly drawn) [Example 36, 5-(tert-butyl)-N-((1R)-1-(4-(5-(4-(4-(4-(2,6-dioxopiperidin-3-yl)-3-fluorophenethyl)piperazin-1-yl)phenyl)-1H-pyrazolo[3,4-b]pyridin-3-yl)-2-methylphenyl)ethyl)-1,2,4-oxadiazole-3-carboxamide]
2.52 | 93.4 | Cc1cc(-c2n[nH]c3ncc(-c4ccc(N5CCN(CC6CCN(c7ccc(N8CCC(=O)NC8=O)cc7)CC6)CC5)cc4)cc23)ccc1[C@@H](C)NC(=O)c1noc(C(C)(C)C)n1 [Example 37, (R)-5-(tert-butyl)-N-(1-(4-(5-(4-(4-((1-(4-(2,4-dioxotetrahydropyrimidin-1(2H)-yl)phenyl)piperidin-4-yl)methyl)piperazin-1-yl)phenyl)-1H-pyrazolo[3,4-b]pyridin-3-yl)-2-methylphenyl)ethyl)-1,2,4-oxadiazole-3-carboxamide]
3.2 |  | Cc1cc(-c2n[nH]c3ncc(-c4ccc(N5CCN(CC6CCN(c7ccc(N8CCC(=O)NC8=O)c(F)c7)CC6)CC5)cc4)cc23)ccc1[C@@H](C)NC(=O)c1noc(C(C)(C)C)n1 [Example 38, (R)-5-(tert-butyl)-N-(1-(4-(5-(4-(4-((1-(4-(2,4-dioxotetrahydropyrimidin-1(2H)-yl)-3-fluorophenyl)piperidin-4-yl)methyl)piperazin-1-yl)phenyl)-1H-pyrazolo[3,4-b]pyridin-3-yl)-2-methylphenyl)ethyl)-1,2,4-oxadiazole-3-carboxamide]
